Source: patent US10487116B2, “Immunotherapy against several tumors, such as lung cancer, including NSCLC” (IMMATICS BIOTECHNOLOGIES GMBH, priority 2013, dated 2019)
Like-named read-outs stand apart in the source and are kept apart here.

Tested on: CD8+ T cells
Test: In vitro T-cell priming assay (aAPCs loaded with peptide/MHC and anti-CD28, pMHC multimer readout)
Type: cell-based, human
Settings: for Wells: positive wells
From the text: In order to obtain information regarding the immunogenicity of the TUMAPs of the present invention, we performed investigations using an in vitro T-cell priming assay based on repeated stimulations of CD8+ T cells with artificial antigen presenting cells (aAPCs) loaded with peptide/MHC complexes and anti-CD28 antibody.
In order to perform in vitro stimulations by artificial antigen presenting cells loaded with peptide-MHC complex (pMHC) and anti-CD28 antibody, we first isolated CD8+ T cells from fresh HLA-A*02 leukapheresis products via positive selection using CD8 microbeads (Miltenyi Biotec, Bergisch-Gladbach, Germany) of healthy donors obtained from the Transfusion Medicine Tuebingen, Germany, after informed consent.
Isolated CD8+ lymphocytes or PBMCs were incubated until use in T-cell medium (TCM) consisting of RPMI-Glutamax (Invitrogen, Karlsruhe, Germany) supplemented with 10% heat inactivated human AB serum (PAN-Biotech, Aidenbach, Germany), 100 U/ml Penicillin/100 μg/ml Streptomycin (Cambrex, Cologne, Germany), 1 mM sodium pyruvate (CC Pro, Oberdorla, Germany), 20 μg/ml Gentamycin (Cambrex). 2.5 ng/ml IL-7 (PromoCell, Heidelberg, Germany) and 10 U/ml IL-2 (Novartis Pharma, Nurnberg, Germany) were also added to the TCM at this step.
Generation of pMHC/anti-CD28 coated beads, T-cell stimulations and readout was performed in a highly defined in vitro system using four different pMHC molecules per stimulation condition and 8 different pMHC molecules per readout condition.
All pMHC complexes used for aAPC loading and cytometric readout were derived from UV-induced MHC ligand exchange (Rodenko et al., 2006) with minor modifications. In order to determine the amount of pMHC monomer obtained by exchange we performed streptavidin-based sandwich ELISAs according to (Rodenko et al., 2006).
The purified co-stimulatory mouse IgG2a anti human CD28 Ab 9.3 (Jung et al., 1987) was chemically biotinylated using Sulfo-N-hydroxysuccinimidobiotin as recommended by the manufacturer (Perbio, Bonn, Germany). Beads used were 5.6 μm diameter streptavidin coated polystyrene particles (Bangs Laboratories, Ill., USA).
pMHC used for positive and negative control stimulations were A*0201/MLA-001 (peptide […] from modified Melan-A/MART-1) and A*0201/DDX5-001 ([…] from DDX5), respectively.
800.000 beads/200 μl were coated in 96-well plates in the presence of 4×12.5 ng different biotin-pMHC, washed and 600 ng biotin anti-CD28 were added subsequently in a volume of 200 μl. Stimulations were initiated in 96-well plates by co-incubating 1×10^6 CD8+ T cells with 2×10^5 washed coated beads in 200 μl TCM supplemented with 5 ng/ml IL-12 (PromoCell) for 3-4 days at 37° C. Half of the medium was then exchanged by fresh TCM supplemented with 80 U/ml IL-2 and incubating was continued for 3-4 days at 37° C. This stimulation cycle was performed for a total of three times. For the pMHC multimer readout using 8 different pMHC molecules per condition, a two-dimensional combinatorial coding approach was used as previously described (Andersen et al., 2012) with minor modifications encompassing coupling to 5 different fluorochromes. Finally, multimeric analyses were performed by staining the cells with Live/dead near IR dye (Invitrogen, Karlsruhe, Germany), CD8-FITC antibody clone SK1 (BD, Heidelberg, Germany) and fluorescent pMHC multimers. For analysis, a BD LSRII SORP cytometer equipped with appropriate lasers and filters was used. Peptide specific cells were calculated as percentage of total CD8+ cells. Evaluation of multimeric analysis was done using the FlowJo software (Tree Star, Oreg., USA). In vitro priming of specific multimer+CD8+ lymphocytes was detected by comparing to negative control stimulations.

[1] = in vitro immunogenicity, trifluoro-acetate salts of the peptides
[2] = in vitro immunogenicity, responding healthy donors, trifluoro-acetate salts of the peptides

| Substance | Wells [1] | Donors [2] | Donors |
| --- | --- | --- | --- |
| 1 (ILFEINPKL; listed as Homo sapiens) [compound 1] | + (<20% = +) | ++ (20%-49% = ++) |  |
| 2 (KIQEMQHFL; listed as Homo sapiens) [compound 2] | + (<20% = +) | ++ (20%-49% = ++) |  |
| 3 (ALDENLHQL; listed as Homo sapiens) [compound 3] | + (<20% = +) | ++ (20%-49% = ++) |  |
| 4 (NLIEKSIYL; listed as Homo sapiens) [compound 4] | + (<20% = +) | ++ (20%-49% = ++) |  |
| 7 (TLWYRAPEV; listed as Homo sapiens) [compound 7] | ++ (20%-49% = ++) | ++++ (>70 = ++++) |  |
| 8 (SMSGYDQVL; listed as Homo sapiens) [compound 8] | + (<20% = +) | ++ (20%-49% = ++) |  |
| 9 (ALMDKEGLTAL; listed as Homo sapiens) [compound 9] | + (<20% = +) | + (<20% = +) |  |
| 10 (VLSVVEVTL; listed as Homo sapiens) [compound 10] | + (<20% = +) | ++ (20%-49% = ++) |  |
| 11 (VLLPVEVATHYL; listed as Homo sapiens) [compound 11] | ++ (20%-49% = ++) | ++++ (>70 = ++++) | 100% |
| 15 (KLAVALLAA; listed as Homo sapiens) [compound 15] | ++ (20%-49% = ++) | ++ (20%-49% = ++) |  |
| 16 (TVIGFLLPFA; listed as Homo sapiens) [compound 16] | + (<20% = +) | ++ (20%-49% = ++) |  |
| 18 (TLYPHTSQV; listed as Homo sapiens) [compound 18] | + (<20% = +) | +++ (50%-70%, +++) |  |
| 19 (AVVEFLTSV; listed as Homo sapiens) [compound 19] | + (<20% = +) | ++ (20%-49% = ++) |  |
| 21 (AILDTLYEV; listed as Homo sapiens) [compound 21] | ++ (20%-49% = ++) | ++ (20%-49% = ++) |  |
| 22 (FLIPIYHQV; listed as Homo sapiens) [compound 22] | + (<20% = +) | +++ (50%-70%, +++) |  |
| 24 (FLVDGSWSV; listed as Homo sapiens) [compound 24] | + (<20% = +) | ++ (20%-49% = ++) |  |
| 30 (KIYNEFISV; listed as Homo sapiens) [compound 30] | + (<20% = +) | ++ (20%-49% = ++) |  |
| 31 (AIDGNNHEV; listed as Homo sapiens) [compound 31] | + (<20% = +) | +++ (50%-70%, +++) |  |
| 32 (KLSWDLIYL; listed as Homo sapiens) [compound 32] | + (<20% = +) | +++ (50%-70%, +++) |  |
| 33 (ALLRTVVSV; listed as Homo sapiens) [compound 33] | + (<20% = +) | +++ (50%-70%, +++) |  |
| 35 (VLFPNLKTV; listed as Homo sapiens) [compound 35] | + (<20% = +) | ++ (20%-49% = ++) |  |
| 37 (VLAPLFVYL; listed as Homo sapiens) [compound 37] | + (<20% = +) | ++++ (>70 = ++++) | 100% |
| 38 (SLHFLILYV; listed as Homo sapiens) [compound 38] | + (<20% = +) | ++ (20%-49% = ++) |  |
| 39 (RLLDSVSRL; listed as Homo sapiens) [compound 39] | + (<20% = +) | ++ (20%-49% = ++) |  |
| 40 (GLTDNIHLV; listed as Homo sapiens) [compound 40] | + (<20% = +) | ++ (20%-49% = ++) |  |

| Substance | Wells [1] | Donors [2] | Donors |
| --- | --- | --- | --- |
| 42 (SLWGGDVVL; listed as Homo sapiens) [compound 42] | ++ (20%-49% = ++) | ++++ (>70 = ++++) | 100% |
| 43 (ALFPHLLQPV; listed as Homo sapiens) [compound 43] | + (<20% = +) | +++ (50%-70%, +++) |  |
| 44 (NLLAEIHGV; listed as Homo sapiens) [compound 44] | + (<20% = +) | ++ (20%-49% = ++) |  |
| 45 (AIMGFIGFFV; listed as Homo sapiens) [compound 45] | + (<20% = +) | + (<20% = +) |  |
| 46 (TLTNIIHNL; listed as Homo sapiens) [compound 46] | + (<20% = +) | +++ (50%-70%, +++) |  |
| 47 (GVLENIFGV; listed as Homo sapiens) [compound 47] | + (<20% = +) | ++ (20%-49% = ++) |  |
| 48 (GLIEIISNA; listed as Homo sapiens) [compound 48] | + (<20% = +) | + (<20% = +) |  |
| 52 (ALLERGYSL; listed as Homo sapiens) [compound 52] | + (<20% = +) | + (<20% = +) |  |
| 53 (YLPHAPPFA; listed as Homo sapiens) [compound 53] | ++ (20%-49% = ++) | ++ (20%-49% = ++) |  |
| 54 (KLVEFDFLGA; listed as Homo sapiens) [compound 54] | + (<20% = +) | ++ (20%-49% = ++) |  |
| 55 (SLADFMQEV; listed as Homo sapiens) [compound 55] | + (<20% = +) | ++ (20%-49% = ++) |  |
| 56 (SLYKGLLSV; listed as Homo sapiens) [compound 56] | ++ (20%-49% = ++) | ++++ (>70 = ++++) | 100% |
| 57 (GLAEDIDKGEV; listed as Homo sapiens) [compound 57] | + (<20% = +) | ++ (20%-49% = ++) |  |
| 59 (ILVSWLPRL; listed as Homo sapiens) [compound 59] | + (<20% = +) | +++ (50%-70%, +++) |  |
| 60 (VVDKTLLLV; listed as Homo sapiens) [compound 60] | +++ (50%-70%, +++) | ++++ (>70 = ++++) | 100% |
| 61 (TLISRLPAV; listed as Homo sapiens) [compound 61] | + (<20% = +) | +++ (50%-70%, +++) |  |
| 62 (ILFPDIIARA; listed as Homo sapiens) [compound 62] | ++ (20%-49% = ++) | ++++ (>70 = ++++) |  |
| 63 (SLAGDVALQQL; listed as Homo sapiens) [compound 63] | + (<20% = +) | ++ (20%-49% = ++) |  |
| 64 (AMLAVLHTV; listed as Homo sapiens) [compound 64] | + (<20% = +) | +++ (50%-70%, +++) |  |
| 65 (KVLEILHRV; listed as Homo sapiens) [compound 65] | ++ (20%-49% = ++) | +++ (50%-70%, +++) |  |
| 66 (KIQEILTQV; listed as Homo sapiens) [compound 66] | + (<20% = +) | +++ (50%-70%, +++) |  |
| 67 (ILQDRLNQV; listed as Homo sapiens) [compound 67] | + (<20% = +) | ++ (20%-49% = ++) |  |
| 68 (YVYQNNIYL; listed as Homo sapiens) [compound 68] | + (<20% = +) | + (<20% = +) |  |
| 69 (AMSSKFFLV; listed as Homo sapiens) [compound 69] | ++ (20%-49% = ++) | +++ (50%-70%, +++) |  |
